Experimental data: US20240351959A1, “USE OF ETHYNYLPYRIDINE COMPOUNDS AS NITRIFICATION INHIBITORS” (BASF SE, priority 2021, published 2024)

Tests used:
nitrification [1] = assay: inhibition of nitrification in soil incubation (NI); conditions: soil incubated at 20° C., 14 days; for NI @ 0.1%: compound at 0.1% of nitrogen N; for NI @ 0.3%: compound at 0.3% of nitrogen N; for NI @ 1%: compound at 1% of nitrogen N
Procedure: The compounds of the invention have been tested as follows in terms of the inhibition of nitrification:
100 g soil is filled into 500 ml plastic bottles (e.g. soil sampled from the field) and is moistened to 50% water holding capacity. The soil is incubated at 20° C. for two weeks to activate the microbial biomass. 1 ml test solution, containing the compound of formula I in the appropriate concentration (usually 0.1, 0.3 or 1% of nitrogen N), or DMSO and 10 mg nitrogen in the form of ammoniumsulfate-N is added to the soil and everything mixed well. Bottles are capped but loosely to allow air exchange. The bottles are then incubated at 20° C. for 0 and 14 days.
For analysis, 300 ml of a 1% K2SO4-solution is added to the bottle containing the soil and shaken for 2 hours in a horizontal shaker at 150 rpm. Then the whole solution is filtered through a filter (Macherey-Nagel Filter MN 807%). Ammonium and nitrate content is then analyzed in the filtrate in an autoanalyzer at 550 nm (Merck, AA11).
The inhibition (NI® a specified concentration) is calculated as follows: […]

nitrification [2] = assay: % NH4-N recovery from fertilized NH4-N in soil Limburgerhof; conditions: 20° C.
Procedure: The compounds according to the invention have been further tested in terms of their % NH4—N recovery from fertilized NH4—N.
The compounds according to general formula I were tested as follows in terms of the inhibition of nitrification:
100 g soil (soil Limburgerhof with pH(CaCl2) 6.8; 73% sand, 23% silt, 4% clay, which is classified according to FAO as a sandy loam) is filled into 500 ml plastic bottles and is moistened to 50% water holding capacity. The soil is incubated at 20° C. for two weeks prior to the experiments to activate the microbial biomass. 1 ml test solution, containing the compounds of formula I or the comparative compounds in the appropriate concentration (0.1, 0.3 or 1% (w/w) of fertilized NH4—N), and 10 mg nitrogen in the form of ammoniumsulfate-N(NH4—N) is added to the soil and everything mixed well. Unfertilized controls received 1 ml pure water. Bottles are capped but loosely to allow air exchange. The bottles are then incubated at 20° C. for 14 days and 28 days.
For analysis, 300 ml of a 1% K2SO4-solution is added to the bottle containing the soil and shaken for 2 hours in a horizontal shaker at 150 rpm. Then the whole solution is filtered through a filter (Macherey-Nagel Filter MN 807%). Ammonium content is then analyzed in the filtrate using an autoanalyzer. Ammonium was quantified via an indophenol blue dye at 660 nm.
The nitrification inhibition is expressed as % of NH4—N recovery from fertilized NH4—N(100%) after subtraction of unfertilized control soil. The number of replicates is 4.
For comparison of the % NH4—N recovery of the compound of the invention, i.e. Example 4, with the comparative compounds as shown above from different trials, the standard deviation of a common treatment of all trials with DMPP (3,4-dimethylpyrazole phosphate) was calculated. As the standard deviation was low, data from different trials were pooled together to compare the average % NH4—N recovery for the compound of the invention and the comparative compounds as shown above.

N2O emission = assay: reduction of N2O emission, potted corn plants in greenhouse soil; design: species or system Zea mais; conditions: 100 ppm ammonium sulfate, cumulated emissions over two weeks, relative to untreated but fertilized control
Procedure: Example 2 was additionally tested in terms of the reduction of N20 emission Corn seeds (Zea mais, cultivar “Shorty”) were planted 1 seed/pot in 8 cm pots in standard greenhouse soil (mixture of peat, loam and sand) and grown in a greenhouse at 20° C. and 60% humidity. Plants were grown for ten days in a completely randomized set-up. On day 6, plants were watered but not fertilized to 50% water holding capacity then left to dry out. On day ten, the plants were separated out and each pot set onto a plant saucer designed with an inner compartment for the pot and an outer ring that is filled with water. At time 0 water with or without 100 ppm ammonium sulfate and with or without the given concentration of nitrification inhibitor (1% and 0.3%) was applied to the plant such that the water holding capacity of the soil was around 50-60%. Then a gas sampling chamber was placed over the plant saucer such that the rim fit into the ring filled with water to create a gas-tight chamber and 20 cc air from the chamber were drawn into a syringe and immediately emptied in to a Vacutainer (Labco, 12 ml volume). […] Samples were analyzed in a Shimadzu 2014 GC equipped with an ECD system. Data was calculated as the cumulated emissions over the measurement period and the % reduction of N20 emissions relative to the untreated but fertilized control was calculated.

| SMILES | NI @ 0.1% (nitrification [1]) | NI @ 0.3% (nitrification [1]) | NI @ 1% (nitrification [1]) | % NH4—N recovery after 14 days (nitrification [2]; 0.1 wt.-% relative to NH4—N) | % NH4—N recovery after 14 days (nitrification [2]; 0.3 wt.-% relative to NH4—N) | % NH4—N recovery after 28 days (nitrification [2]; 0.3 wt.-% relative to NH4—N) | % NH4—N recovery after 14 days (nitrification [2]; 1 wt.-% relative to NH4—N) | % NH4—N recovery after 28 days (nitrification [2]; 1 wt.-% relative to NH4—N) | % reduction of N2O relative to control @ 0.3% (N2O emission; nitrification inhibitor 0.3%) | % reduction of N2O relative to control @ 1% (N2O emission; nitrification inhibitor 1%) |
| --- | --- | --- | --- | --- | --- | --- | --- | --- | --- | --- |
| C#Cc1ccc(Cl)nc1 [Example 3] | 68% | 84% | 94% | – | – | – | – | – | – | – |
| C[Si](C)(C)C#Cc1ccccn1 [Comparative Example A] | – | – | – | 46.50% | 60.30% | 51.2% | 67.80% | 68.1% | – | – |
| C#Cc1ccc(Cl)cn1 [Example 2] | 74% | – | 76% | – | – | – | – | – | 91% | 97% |
| Clc1cccc(C(Cl)(Cl)Cl)n1 [Comparative Example, reference compound] | – | 35% | 54% | – | – | – | – | – | – | – |
| C[Si](C)(C)C#Cc1ccc(Cl)cn1 [Comparative Example B] | – | – | – | 20.94% | 44.40% | 11.1% | 59.90% | 61.0% | – | – |
| C#Cc1ccc(Cl)cn1 [Example 4] | – | – | – | 74.00% | 68.50% | 59.0% | 72.00% | 56.0% | – | – |
| C#Cc1cc(Cl)ccn1 [Example 1] | 46% | – | 83% | – | – | – | – | – | – | – |
